Experimental data published in patent publication US11229205B2, “Herbicidally active pyridyl-/pyrimidyl-pyrazine derivatives” (Syngenta Participations AG, priority 2017, dated 2022).

Tests used:
Assay type in all cases: in vivo
[1] = tested on: Echinochloa crus-galli (ECHCG); assay: Post-emergence herbicidal activity (B2); settings: Test B2a; post-emergence application; rate 1000 g/ha; evaluated after 13 days; score 0-5
Experimental: (§1) Seeds of a variety of test species were sown in standard soil in pots: Triticum aestivium (TRZAW), Avena fatua (AVEFA), Alopecurus myosuroides (ALOMY), Echinochloa crus-galli (ECHCG), Lolium perenne (LOLPE), Zea Mays (ZEAMX), Abutilon theophrasti (ABUTH), Amaranthus retroflexus (AMARE) and Setaria faberi (SETFA). […] The test plants were then grown in a glasshouse under controlled conditions (at 24/16° C., day/night; 14 hours light; 65% humidity) and watered twice daily. After 13 days, the test was evaluated (5=total damage to plant; 0=no damage to plant).

Lolium perenne (LOLPE) [2] = assay: Post-emergence herbicidal activity (B2); settings: Test B2a; post-emergence application; rate 1000 g/ha; evaluated after 13 days; score 0-5
Experimental: as §1

Zea Mays (ZEAMX) [3] = assay: Post-emergence herbicidal activity (B2); settings: Test B2a; post-emergence application; rate 1000 g/ha; evaluated after 13 days; score 0-5
Experimental: as §1

Setaria faberi (SETFA) [4] = assay: Post-emergence herbicidal activity (B2); settings: Test B2a; post-emergence application; rate 1000 g/ha; evaluated after 13 days; score 0-5
Experimental: as §1

[5] = tested on: Abutilon theophrasti (ABUTH); assay: Post-emergence herbicidal activity (B2); settings: Test B2a; post-emergence application; rate 1000 g/ha; evaluated after 13 days; score 0-5
Experimental: as §1

[6] = tested on: Amaranthus retroflexus (AMARE); assay: Post-emergence herbicidal activity (B2); settings: Test B2a; post-emergence application; rate 1000 g/ha; evaluated after 13 days; score 0-5
Experimental: as §1

[7] = tested on: Echinochloa crus-galli (ECHCG); assay: Pre-emergence herbicidal activity (B1); settings: Test 1a; pre-emergence application; rate 1000 g/ha; evaluated after 13 days; score 0-5
Experimental: as §1

Lolium perenne (LOLPE) [8] = assay: Pre-emergence herbicidal activity (B1); settings: Test 1a; pre-emergence application; rate 1000 g/ha; evaluated after 13 days; score 0-5
Experimental: as §1

Zea Mays (ZEAMX) [9] = assay: Pre-emergence herbicidal activity (B1); settings: Test 1a; pre-emergence application; rate 1000 g/ha; evaluated after 13 days; score 0-5
Experimental: as §1

Setaria faberi (SETFA) [10] = assay: Pre-emergence herbicidal activity (B1); settings: Test 1a; pre-emergence application; rate 1000 g/ha; evaluated after 13 days; score 0-5
Experimental: as §1

[11] = tested on: Abutilon theophrasti (ABUTH); assay: Pre-emergence herbicidal activity (B1); settings: Test 1a; pre-emergence application; rate 1000 g/ha; evaluated after 13 days; score 0-5
Experimental: as §1

[12] = tested on: Amaranthus retroflexus (AMARE); assay: Pre-emergence herbicidal activity (B1); settings: Test 1a; pre-emergence application; rate 1000 g/ha; evaluated after 13 days; score 0-5
Experimental: as §1

In the case of `Cc1nc(-c2cncnc2)cnc1N` [Compound G1], the “damage to plant, ECHCG” value [1] was 1, the “damage to plant, LOLPE” value (Lolium perenne (LOLPE) [2]) was 1 and the “damage to plant, ZEAMX” value (Zea Mays (ZEAMX) [3]) was 2. The “damage to plant, SETFA” value (Setaria faberi (SETFA) [4]) was 2, the “damage to plant, ABUTH” value [5] was 1 and the “damage to plant, AMARE” value [6] was 2. The “damage to plant, ECHCG” value [7] was 1, the “damage to plant, LOLPE” value (Lolium perenne (LOLPE) [8]) was 0 and the “damage to plant, ZEAMX” value (Zea Mays (ZEAMX) [9]) was 1. The “damage to plant, SETFA” value (Setaria faberi (SETFA) [10]) was 2, the “damage to plant, ABUTH” value [11] was 0 and the “damage to plant, AMARE” value [12] was 0.
